Results on 35 molecules are retold here after patent US8946273B2, “S-Triazolyl alpha-mercapto acetanilides as inhibitors of HIV reverse transcriptase” (priority 2011, dated 2015).

Assay [1] concerns the target T1, wild-type HIV reverse transcriptase (Human immunodeficiency virus type 1 group M subtype B, UniProt P04585).
T1 construct: wild-type and four mutant HIV reverse transcriptases
As to the kind of experiment: Activity on wild type reverse transcriptase (Table 1 IC50 WT). The class given is biochemical.

For assay [2], the system named is wild type HIV-1. As to the kind of experiment: microbe, parasite or virus in culture. It is filed as cell-based, human immunodeficiency virus type 1 (HIV-1). The settings on record: Human immunodeficiency virus 1, Hela-JC53, read-out: EC50 WT.
The target of assay [3] is mutant HIV reverse transcriptases (Human immunodeficiency virus type 1, UniProt P12497, Y775L, cells depend on it). It is filed as cell-based.
Assay [4] has as its target mutant HIV reverse transcriptases (Human immunodeficiency virus type 1, UniProt P12497, Y768C, cells depend on it). The class given is cell-based.

Bounds are passed on as bounds.

The IC50 is the concentration at which inhibition is half-maximal. Low values mean greater potency in that assay, high ones weaker potency in that assay. As a reminder, the EC50 is the concentration at which the effect is half-maximal. In assay [1], `CCOC(=O)CCNC(=O)c1ccc(NC(=O)CSc2nnc(Br)n2-c2ccc(CC)c3ccccc23)c(Cl)c1` [compound 107] registered a 50% inhibitory concentration (IC50) of under 0.05 µM. Moreover, the concentration giving a half-maximal response (EC50) in assay [2] was under 0.05 µM; in assay [3] it was over 0.1 µM; in assay [4], under 0.05 µM.

The molecule `CCOC(=O)CN(C)C(=O)c1ccc(NC(=O)CSc2nnc(Br)n2-c2ccc(CC)c3ccccc23)c(Cl)c1` [compound 108] showed an IC50 in assay [1] of under 0.05 µM. Besides, the 50% effective concentration (EC50) in assay [2], in assay [3] and in assay [4] was under 0.05 µM each time.

In the case of `CCOC(=O)CN(C)C(=O)c1ccc(NC(=O)CSc2nnc(Br)n2-c2ccc(C3CC3)c3ccccc23)c(Cl)c1` [compound 109], in assay [1], the IC50 lay within 0.05 to 0.1 µM. The concentration for a half-maximal effect (EC50) in assay [2], in assay [3] and in assay [4] was under 0.05 µM throughout.

Turning to `O=C(O)CNC(=O)c1ccc(NC(=O)CSc2nnc(Br)n2-c2ccc(C3CC3)c3ccccc23)c(Cl)c1` [compound 110], the IC50 in assay [1] was under 0.05 µM. Moreover, the half-maximal effective concentration (EC50) was under 0.05 µM in assay [2], over 0.1 µM in assay [3] and over 0.1 µM in assay [4].

In assay [1], `CN(CC(=O)O)C(=O)c1ccc(NC(=O)CSc2nnc(Br)n2-c2ccc(C3CC3)c3ccccc23)c(Cl)c1` [compound 111] showed a 50% inhibitory concentration (IC50) of under 0.05 µM. For the same molecule, the EC50 in assay [2] was 0.05 to 0.1 µM; in assay [3], over 0.1 µM; in assay [4], over 0.1 µM.

Take `O=C(O)CCNC(=O)c1ccc(NC(=O)CSc2nnc(Br)n2-c2ccc(C3CC3)c3ccccc23)c(Cl)c1` [compound 112]: in assay [1], the IC50 was under 0.05 µM. Further, the figures for the 50% effective concentration (EC50) in assay [2], in assay [3] and in assay [4] were under 0.05 µM, over 0.1 µM and over 0.1 µM, respectively.

Take `COc1ccc2c(C3CC3)ccc(-n3c(Br)nnc3SCC(=O)Nc3ccc(S(=O)(=O)O)cc3Cl)c2c1` [compound 113]: the 50% inhibitory concentration (IC50) in assay [1] is under 0.05 µM. In addition, the concentration for a half-maximal effect (EC50) in assay [2] is 0.05 to 0.1 µM; in assay [3], over 0.1 µM; in assay [4] it was 0.05 to 0.1 µM.

In assay [1], `CCOC(=O)[C@H](Cc1ccc(O)cc1)NC(=O)c1ccc(NC(=O)CSc2nnc(Br)n2-c2ccc(C3CC3)c3ccccc23)c(Cl)c1` [compound 114] returned an IC50 of 0.05 to 0.1 µM. Moreover, the EC50 in assay [2] was under 0.05 µM; in assay [3], over 0.1 µM; in assay [4] it was under 0.05 µM.

For the molecule `COC(=O)[C@H](CC(C)C)NC(=O)c1ccc(NC(=O)CSc2nnc(Br)n2-c2ccc(C3CC3)c3ccccc23)c(Cl)c1` [compound 115], in assay [1], the concentration for half-maximal inhibition (IC50) was under 0.05 µM. Further, the values for the EC50 in assay [2], in assay [3] and in assay [4] were under 0.05 µM, 0.05 to 0.1 µM and under 0.05 µM, respectively.

As for `O=C(CSc1nnc(Br)n1-c1ccc(C2CC2)c2ccccc12)Nc1ccc(C(=O)N[C@@H](Cc2ccc(O)cc2)C(=O)O)cc1Cl` [compound 116], the IC50 in assay [1] was under 0.05 µM. The EC50 in assay [2] is 0.05 to 0.1 µM; in assay [3], over 0.1 µM; in assay [4] it was over 0.1 µM.

As for `CC(C)C[C@H](NC(=O)c1ccc(NC(=O)CSc2nnc(Br)n2-c2ccc(C3CC3)c3ccccc23)c(Cl)c1)C(=O)O` [compound 117], in assay [1], the half-maximal inhibitory concentration (IC50) is under 0.05 µM. In addition, the values for the concentration for a half-maximal effect (EC50) in assay [2], in assay [3] and in assay [4] were under 0.05 µM, over 0.1 µM and 0.05 to 0.1 µM, respectively.

As for `CCc1ccc(-n2c(Br)nnc2SCC(=O)Nc2ccc(C(=O)NCC(OC)OC)cc2Cl)c2ccccc12` [compound 118], the concentration for half-maximal inhibition (IC50) in assay [1] was under 0.05 µM. In addition, the 50% effective concentration (EC50) in assay [2], in assay [3] and in assay [4] was under 0.05 µM throughout.

The molecule `CCc1ccc(-n2c(Br)nnc2SCC(=O)Nc2ccc(C(=O)NCCN(C)C)cc2Cl)c2ccccc12` [compound 119] returned a 50% inhibitory concentration (IC50) in assay [1] of under 0.05 µM. Besides, the half-maximal effective concentration (EC50) in assay [2], in assay [3] and in assay [4] was under 0.05 µM throughout.

In turn, `CCc1ccc(-n2c(Br)nnc2SCC(=O)Nc2ccc(C(=O)NCC(O)CO)cc2Cl)c2ccccc12` (centres unmarked) [compound 120] returned a concentration for half-maximal inhibition (IC50) in assay [1] of under 0.05 µM. Further, the EC50 in assay [2], in assay [3] and in assay [4] was under 0.05 µM in each case.

`CCCCNC(=O)c1ccc(NC(=O)CSc2nnc(Br)n2-c2ccc(CC)c3ccccc23)c(Cl)c1` [compound 121] had an IC50 in assay [1] of 0.05 to 0.1 µM. The concentration giving a half-maximal response (EC50) in assay [2], in assay [3] and in assay [4] was under 0.05 µM in each case.

The molecule `CCCCCCNC(=O)c1ccc(NC(=O)CSc2nnc(Br)n2-c2ccc(CC)c3ccccc23)c(Cl)c1` [compound 122] showed an IC50 in assay [1] of under 0.05 µM. The values for the EC50 in assay [2], in assay [3] and in assay [4] were under 0.05 µM, 0.05 to 0.1 µM and under 0.05 µM, respectively.

In assay [1], `CCc1ccc(-n2c(Br)nnc2SCC(=O)Nc2ccc(C(=O)NCCN3CCCC3)cc2Cl)c2ccccc12` [compound 123] yielded an IC50 of under 0.05 µM. In addition, the EC50 in assay [2], in assay [3] and in assay [4] was under 0.05 µM throughout.

Turning to `CCc1ccc(-n2c(Br)nnc2SCC(=O)Nc2ccc(C(=O)NCC3CCCCC3)cc2Cl)c2ccccc12` [compound 124], the IC50 in assay [1] is under 0.05 µM. Besides, the EC50 in assay [2], in assay [3] and in assay [4] was under 0.05 µM each time.

In turn, `CCc1ccc(-n2c(Br)nnc2SCC(=O)Nc2ccc(C(=O)NCC3CCCO3)cc2Cl)c2ccccc12` (centres unmarked) [compound 125] registered an IC50 in assay [1] of under 0.05 µM. The EC50 in assay [2], in assay [3] and in assay [4] was under 0.05 µM throughout.

Take `CCOC(=O)N1CCC(NC(=O)c2ccc(NC(=O)CSc3nnc(Br)n3-c3ccc(CC)c4ccccc34)c(Cl)c2)CC1` [compound 126]: the IC50 in assay [1] is under 0.05 µM. Further, the EC50 in assay [2], in assay [3] and in assay [4] was under 0.05 µM in each case.

Take `CCc1ccc(-n2c(Br)nnc2SCC(=O)Nc2ccc(C(=O)NCCOC)cc2Cl)c2ccccc12` [compound 127]: in assay [1], the half-inhibitory concentration (IC50) is under 0.05 µM. The EC50 in assay [2], in assay [3] and in assay [4] was under 0.05 µM each time.

Turning to `CCc1ccc(-n2c(Br)nnc2SCC(=O)Nc2ccc(C(=O)NCC(C)O)cc2Cl)c2ccccc12` (centres unmarked) [compound 128], the IC50 in assay [1] is under 0.05 µM. Moreover, the 50% effective concentration (EC50) in assay [2], in assay [3] and in assay [4] was under 0.05 µM throughout.

In assay [1], `CC(C)OC(=O)CNC(=O)c1ccc(NC(=O)CSc2nnc(Br)n2-c2ccc(C3CC3)c3ccccc23)c(Cl)c1` [compound 129] displayed an IC50 of under 0.05 µM. Also, the EC50 in assay [2], in assay [3] and in assay [4] was under 0.05 µM in each case.

`CCc1ccc(-n2c(Br)nnc2SCC(=O)Nc2ccc(C(=O)NCCC#N)cc2Cl)c2ccccc12` [compound 130] returned an IC50 in assay [1] of under 0.05 µM. The EC50 in assay [2], in assay [3] and in assay [4] was under 0.05 µM in each case.

In assay [1], `CCNC(=O)c1ccc(NC(=O)CSc2nnc(Br)n2-c2ccc(CC)c3ccccc23)c(Cl)c1` [compound 131] displayed an IC50 of under 0.05 µM. Besides, the 50% effective concentration (EC50) in assay [2], in assay [3] and in assay [4] was under 0.05 µM throughout.

In assay [1], `CCc1ccc(-n2c(Br)nnc2SCC(=O)Nc2ccc(C(=O)NCCO)cc2Cl)c2ccccc12` [compound 132] showed an IC50 of under 0.05 µM. Also, the EC50 in assay [2], in assay [3] and in assay [4] was under 0.05 µM each time.

On to `CCc1ccc(-n2c(Br)nnc2SCC(=O)Nc2ccc(C(=O)N3CCCCC3CO)cc2Cl)c2ccccc12` (centres unmarked) [compound 133], for which the IC50 in assay [1] was under 0.05 µM. Moreover, the EC50 in assay [2], in assay [3] and in assay [4] was under 0.05 µM each time.

Take `CCc1ccc(-n2c(Br)nnc2SCC(=O)Nc2ccc(C(=O)N3CCC(O)CC3)cc2Cl)c2ccccc12` [compound 134]: the IC50 in assay [1] is under 0.05 µM. Moreover, the concentration for a half-maximal effect (EC50) in assay [2], in assay [3] and in assay [4] was under 0.05 µM each time.

In turn, `CC[C@H](C)[C@H](NC(=O)c1ccc(NC(=O)CSc2nnc(Br)n2-c2ccc(C3CC3)c3ccccc23)c(Cl)c1)C(=O)O` [compound 135] came in with an IC50 in assay [1] of under 0.05 µM. The 50% effective concentration (EC50) in assay [2] is under 0.05 µM; in assay [3] it was over 0.1 µM; in assay [4], under 0.05 µM.

The molecule `CCc1ccc(-n2c(Br)nnc2SCC(=O)Nc2ccc(C(=O)NCC(C)(C)N)cc2Cl)c2ccccc12` [compound 136] displayed a 50% inhibitory concentration (IC50) in assay [1] of under 0.05 µM. The EC50 in assay [2], in assay [3] and in assay [4] was under 0.05 µM throughout.

Regarding `CCc1ccc(-n2c(Br)nnc2SCC(=O)Nc2ccc(C(=O)NCCCCO)cc2Cl)c2ccccc12` [compound 137], the 50% inhibitory concentration (IC50) in assay [1] is under 0.05 µM. Besides, the EC50 in assay [2], in assay [3] and in assay [4] was under 0.05 µM in each case.

Take `CCc1ccc(-n2c(Br)nnc2SCC(=O)Nc2ccc(C(=O)N3CCC(CN)CC3)cc2Cl)c2ccccc12` [compound 138]: in assay [1], the half-inhibitory concentration (IC50) is under 0.05 µM. In addition, the concentration for a half-maximal effect (EC50) in assay [2], in assay [3] and in assay [4] was under 0.05 µM each time.

The molecule `CCc1ccc(-n2c(Br)nnc2SCC(=O)Nc2ccc(C(=O)NCC3CCNCC3)cc2Cl)c2ccccc12` [compound 139] gave a half-inhibitory concentration (IC50) in assay [1] of over 0.1 µM. In addition, the EC50 in assay [2] is under 0.05 µM; in assay [3], 0.05 to 0.1 µM; in assay [4], under 0.05 µM.

`CCc1ccc(-n2c(Br)nnc2SCC(=O)Nc2ccc(C(=O)N[C@@H](CO)C(=O)OC)cc2Cl)c2ccccc12` [compound 140]: in assay [1], the IC50 is under 0.05 µM. In addition, the concentration for a half-maximal effect (EC50) in assay [2], in assay [3] and in assay [4] was under 0.05 µM in each case.

`Cc1cc(S(N)(=O)=O)ccc1NC(=O)C(C)Sc1nnc(Br)n1-c1c(C)ccc2ccccc12` (centres unmarked) [compound 142]: in assay [1], the IC50 is under 0.05 µM. Also, the half-maximal effective concentration (EC50) was under 0.05 µM in assay [2], over 0.1 µM in assay [3] and under 0.05 µM in assay [4].
